Tested on: Formalin induced pain in rat animal models of hyperalgesia
Experiment: Rat Formalin Paw Test (in vivo assay)
Conditions: flinches, shown in FIGS. 1 and 2
Description: Rat Formalin Paw Test (in Vivo Assay): Compounds were assessed for their ability to inhibit the behavioral response evoked by an injection of formalin (50 μl of 5% formalin). A metal band was affixed to the left hind paw of male Holtzman rats (225-250 g, Harlan Industries, Indianapolis Ind.) and each rat was conditioned to the band for 60 min within a plastic cylinder (15 cm diameter). Rats were dosed with either vehicle, positive control compound or a test compound either before (local) or after (systemic) formalin challenge. For local administration, compounds were prepared in either a 10:7.5 vehicle of saline (in mL) and (D)- or (L)-Tartaric acid (in mg), or a 1:1:6 vehicle of DMA (N,N-Dimethylacetamide), Tween 80 and saline, and injected […] into the dorsal surface of the right hind paw of the rat 60 min prior to formalin. The number of flinches was counted continuously for 60 min using an automated nociception analyzer (UCSD Anesthesiology Research, San Diego, Calif.). Statistical significance was determined by comparing the total flinches detected in the early (0-10 min, Phase I) and late (11-60 min) phase with an unpaired t-test. […]

| SMILES | reduction of Formalin induced pain |
| --- | --- |
| O=C(c1ccc(F)cc1)C1CCN(CCn2c(=O)[nH]c3ccccc3c2=O)CC1 [Compound 401, 3-{2-[4-(4-Fluoro-benzoyl)-piperidin-1-yl]-ethyl}-1H-quinazoline-2,4-dione] | reduction of Formalin induced pain |
| CC1CCCC(NC(=O)C2N(C(C)CCc3ccccc3)C(=O)C3C(C(=O)Nc4cc(Cl)cc(Cl)c4)C4C=CC32O4)C1C (centres unmarked) [Compound 52, 3-(1-Methyl-3-phenyl-propyl)-4-oxo-10-oxa-3-aza-tricyclo[5.2.1.0^1,5]dec-8-ene-2,6-dicarboxylic acid 2-[(3,5-dichloro-phenyl)-amide]6-[(2,3-dimethyl-cyclohexyl)-amide]] | reduction of Formalin induced pain |

Source: patent US8586619B2, “Agents of calcium ion channel modulators” (VM Therapeutics LLC, priority 2007, dated 2013)
